Tests used:
[1] = biological target: T1, Amuc1755^4S-Gal (Akkermansia muciniphila, UniProt B2UML7, E464A); experiment: HPAEC and TLC desulfation assay; format: biochemical; settings: overnight, 37 °C
T1 construct: gene Amuc_1755; recombinant, N-terminal His6 (pETite), E. coli TUNER (DE3); monomer

[2] = biological target: T2, Amuc1755^4S-Gal (Akkermansia muciniphila, UniProt B2UML7, E464G); experiment: HPAEC and TLC desulfation assay; format: biochemical; settings: overnight, 37 °C
T2 construct: gene Amuc_1755; recombinant, N-terminal His6 (pETite), E. coli TUNER (DE3); monomer

[3] = biological target: T3, Amuc0491^3S-Gal/GalNAc (Akkermansia muciniphila, UniProt B2UNV9); experiment: HPAEC and microfluidic desulfation assays; format: biochemical; settings: 5 mM CaCl2, 150 mM NaCl; kinetics (kcat/Km only) with labelled compound
T3 construct: gene Amuc_0491; recombinant, N-terminal His6 (pETite), E. coli TUNER (DE3)

[4] = biological target: Amuc1033^6S-GlcNAc (Akkermansia muciniphila) (UniProt B2UQX4); experiment: SEC-MALS; size-exclusion chromatography coupled to light scattering (90°) and refractive index; Agilent BioSEC Advance 300 Å column; 20 mM Tris-HCl pH 7.4, 150 mM NaCl; calibrated with BSA

T2 sequence (B2UML7 entry or part of it E464G): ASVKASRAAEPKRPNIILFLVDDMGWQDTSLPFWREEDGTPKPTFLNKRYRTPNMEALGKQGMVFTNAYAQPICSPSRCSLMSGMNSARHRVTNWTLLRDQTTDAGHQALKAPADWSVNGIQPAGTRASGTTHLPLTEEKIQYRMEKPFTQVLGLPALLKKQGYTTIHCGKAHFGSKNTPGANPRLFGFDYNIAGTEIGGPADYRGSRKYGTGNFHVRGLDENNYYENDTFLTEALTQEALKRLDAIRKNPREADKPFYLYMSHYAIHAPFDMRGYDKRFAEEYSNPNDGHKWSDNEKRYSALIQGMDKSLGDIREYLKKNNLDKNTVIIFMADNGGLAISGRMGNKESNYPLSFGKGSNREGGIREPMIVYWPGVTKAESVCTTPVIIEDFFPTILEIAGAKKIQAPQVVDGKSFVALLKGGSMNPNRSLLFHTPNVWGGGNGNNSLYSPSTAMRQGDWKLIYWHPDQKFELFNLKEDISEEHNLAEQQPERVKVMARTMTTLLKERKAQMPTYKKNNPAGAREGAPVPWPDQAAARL
T3 sequence (B2UNV9 entry or part of it): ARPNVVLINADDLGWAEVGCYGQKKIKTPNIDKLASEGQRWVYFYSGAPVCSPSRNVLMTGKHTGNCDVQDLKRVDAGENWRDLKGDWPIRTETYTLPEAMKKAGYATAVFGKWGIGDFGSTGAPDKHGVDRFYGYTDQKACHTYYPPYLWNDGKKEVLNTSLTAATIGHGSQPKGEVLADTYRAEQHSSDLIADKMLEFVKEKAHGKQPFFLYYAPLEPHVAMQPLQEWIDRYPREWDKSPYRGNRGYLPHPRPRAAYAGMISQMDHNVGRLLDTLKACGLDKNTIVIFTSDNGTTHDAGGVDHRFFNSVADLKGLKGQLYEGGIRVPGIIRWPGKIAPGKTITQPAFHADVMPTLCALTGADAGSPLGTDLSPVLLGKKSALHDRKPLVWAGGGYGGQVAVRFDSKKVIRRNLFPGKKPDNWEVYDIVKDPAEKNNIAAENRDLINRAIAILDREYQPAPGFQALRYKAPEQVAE
T1 sequence (B2UML7 entry or part of it E464A): as the sequence (B2UML7 entry or part of it E464G) above, with G441A counted along it

Compound	HPAEC and TLC desulfation assay [1]	HPAEC and TLC desulfation assay [2]	HPAEC and microfluidic desulfation assays [3]	stoichiometry N [4]
CC(=O)N[C@H]1C(O)O[C@H](CO)[C@H](OS(=O)(=O)O)[C@@H]1O (stereo partly drawn) [4S-GalNAc, O4 sulfated N-acetyl-D-galactosamine]	Mutation of Glu464 to Ala and Gly enabled the Amuc1755^4S-Gal to work on 4S-GalNAc	Mutation of Glu464 to Ala and Gly enabled the Amuc1755^4S-Gal to work on 4S-GalNAc	–	–
O=S(=O)(O)O[C@@H]1[C@H](O)[C@@H](O)C(O)O[C@@H]1CO (stereo partly drawn) [4S-Gal, O4 sulfated D-galactose]	but reduced activity on 4S-Gal	but reduced activity on 4S-Gal	–	–
O=S(=O)(O)O[C@H]1[C@@H](O)[C@@H](CO)OC(O)[C@@H]1O (stereo partly drawn) [3S-Gal, O3 sulfated D-galactose]	–	–	which desulfate O3 sulfated D-galactose (3S-Gal)-containing substrates	–
CC(=O)N[C@H]1C(O)O[C@H](CO)[C@H](O)[C@@H]1OS(=O)(=O)O (stereo partly drawn) [3S-GalNAc, O3 sulfated N-acetyl-D-galactosamine]	–	–	only Amuc0491^3S-Gal/GalNAc was capable of desulfating O3 sulfatedN-acetyl-D-galactosamine (3S-GalNAc)	–
Amuc1033^6S-GlcNAc (from UniProt B2UQX4 1-581) (enzyme)	–	–	–	2
